This passage reports EC50 results from patent US10112907B2, “Substituted indazoles for treating tendon and/or ligament injuries” (NOVARTIS AG, priority 2016, dated 2018).

The test system of this test is Scleraxis (Scx) gene transcriptional activation in TT-D6 Scx-luciferase (ScxL) cell line. Nature of the test: SCX-LUC in vitro assay (Scx-luciferase reporter). Type of test: cell-based. Particulars: Mus musculus. (In a reporter assay the amount or activity of a reporter protein is the signal.)
The mark [1] stands for this setting: 96 h, Table 3, four days, read-out: Scx-Luc (EC50 μM).
Setting [2] is: assays described above (Scx-Luc and ex vivo), read-out: EC50 in the assays described above.

Molecules are shown by their SMILES. Read-outs that look alike come from different tables or passages of the source. Where only a bound is given, the exact number is not on record here.

The EC50 is the midpoint of the concentration-response curve. As to `Cc1cc(S(=O)(=O)N2CCC(C)(O)C2)ccc1-c1ccc2[nH]nc(N)c2c1C` (stereo not shown) [Example 57, 1-((4-(3-amino-4-methyl-1H-indazol-5-yl)-3-methylphenyl)sulfonyl)-3-methylpyrrolidin-3-ol], the EC50 under setting [1] came to 2.71 µM.

Turning to `Cc1cc(S(=O)(=O)N2CCC(O)(C(F)(F)F)C2)ccc1-c1ccc2[nH]nc(N)c2c1C` (stereo not shown) [Example 62, 1-((4-(3-amino-4-methyl-1H-indazol-5-yl)-3-methylphenyl)sulfonyl)-3-(trifluoromethyl)pyrrolidin-3-ol], under setting [1], the EC50 worked out at 0.63 µM.

As for `Cc1cc(S(=O)(=O)NC2CC(O)(c3ccccc3)C2)ccc1-c1ccc2[nH]nc(N)c2c1C` (stereo not shown) [Example 52, 4-(3-amino-4-methyl-1H-indazol-5-yl)-N-(3-hydroxy-3-phenylcyclobutyl)-3-methylbenzenesulfonamide], the EC50 under setting [1] amounted to 0.578 µM.

Take `Cc1c(-c2ccc(S(=O)(=O)N3CC(F)(F)C[C@H]3CO)cc2F)ccc2[nH]nc(N)c12` [Example 42, (S)-(1-((4-(3-amino-4-methyl-1H-indazol-5-yl)-3-fluorophenyl)sulfonyl)-4,4-difluoropyrrolidin-2-yl)methanol]: under setting [1], the EC50 is 0.814 µM.

Regarding `Cc1c(-c2c(F)cc(S(=O)(=O)N3CC(F)(F)C[C@H]3CO)cc2F)ccc2[nH]nc(N)c12` [Example 89, (S)-(1-((4-(3-amino-4-methyl-1H-indazol-5-yl)-3,5-difluorophenyl)sulfonyl)-4,4-difluoropyrrolidin-2-yl)methanol], the EC50 under setting [1] amounted to 0.554 µM.

Consider `Cc1cc(S(=O)(=O)NC2CC(O)(C(F)(F)F)C2)ccc1-c1ccc2[nH]nc(N)c2c1F` (stereo not shown) [Example 71, 4-(3-amino-4-fluoro-1H-indazol-5-yl)-N-((1s,3s)-3-hydroxy-3-(trifluoromethyl)cyclobutyl)-3-methylbenzenesulfonamide], for which, under setting [1], the EC50 was determined as 0.108 µM.

With `Cc1cc(S(=O)(=O)N[C@H]2C[C@H](O)C2)ccc1-c1ccc2[nH]nc(N)c2c1C` [Example 9, 4-(3-amino-4-methyl-1H-indazol-5-yl)-N-((1r,3r)-3-hydroxycyclobutyl)-3-methylbenzenesulfonamide], the EC50 under setting [1] stood at 4.96 µM.

`Cc1c(-c2ccc(S(=O)(=O)N3CC(F)(F)C[C@H]3CO)cc2Cl)ccc2[nH]nc(N)c12` [Example 56, (S)-(1-((4-(3-amino-4-methyl-1H-indazol-5-yl)-3-chlorophenyl)sulfonyl)-4,4-difluoropyrrolidin-2-yl)methanol]: under setting [1], the EC50 was 0.764 µM.

In the case of `Cc1c(-c2ccc(S(=O)(=O)N3CCC[C@H]3CO)cc2Cl)ccc2[nH]nc(N)c12` [Example 38, (S)-(1-((4-(3-amino-4-methyl-1H-indazol-5-yl)-3-chlorophenyl)sulfonyl)pyrrolidin-2-yl)methanol], the EC50 under setting [1] was determined as 2.04 µM.

Consider `Nc1n[nH]c2ccc(-c3ccc(S(=O)(=O)N4CC[C@@H](O)C4)cc3Cl)c(Cl)c12` [Example 8, (R)-1-((4-(3-amino-4-chloro-1H-indazol-5-yl)-3-chlorophenyl)sulfonyl)pyrrolidin-3-ol], for which the EC50 under setting [1] was 3.6 µM.

With `Cc1cnc(Nc2ccc(OCCN3CCCC3)cc2)nc1Nc1cccc(S(=O)(=O)NC(C)(C)C)c1` [reference compound], the EC50 (Table 1, read-out: Scx-Luc (EC50 uM)) stood at 0.62 µM.

Regarding `Nc1n[nH]c2ccc(-c3ccc(S(=O)(=O)NC4CC(O)(C(F)(F)F)C4)cc3Cl)c(F)c12` (stereo not shown) [Example 72, 4-(3-amino-4-fluoro-1H-indazol-5-yl)-3-chloro-N-((1s,3s)-3-hydroxy-3-(trifluoromethyl)cyclobutyl)benzenesulfonamide], under setting [1], the EC50 was 0.177 µM.

`Cc1cc(S(=O)(=O)N[C@H]2C[C@@H](O)C2)ccc1-c1ccc2[nH]nc(N)c2c1Cl` [Example 30, 4-(3-amino-4-chloro-1H-indazol-5-yl)-N-((1s,3s)-3-hydroxycyclobutyl)-3-methylbenzenesulfonamide]: under setting [1], the EC50 stood at 0.752 µM.

For `Cc1cc(S(=O)(=O)N[C@H]2CC[C@@H](C#N)CC2)ccc1-c1ccc2[nH]nc(N)c2c1C` [Example 27, 4-(3-amino-4-methyl-1H-indazol-5-yl)-N-((1s,4s)-4-cyanocyclohexyl)-3-methylbenzenesulfonamide], the EC50 under setting [1] is 1.35 µM.

`Nc1n[nH]c2ccc(-c3ccc(S(=O)(=O)N4CC[C@@H](O)C4)cc3F)c(Cl)c12` [Example 6, (R)-1-((4-(3-amino-4-chloro-1H-indazol-5-yl)-3-fluorophenyl)sulfonyl)pyrrolidin-3-ol]: under setting [1], the EC50 came to 4.41 µM.

With `Cc1cc(S(=O)(=O)N2C[C@H](O)[C@@H](F)C2)ccc1-c1ccc2[nH]nc(N)c2c1C` [(3S,4S)-1-((4-(3-amino-4-methyl-1H-indazol-5-yl)-3-methylphenyl)sulfonyl)-4-fluoropyrrolidin-3-ol], the EC50 under setting [2] is more than 10 µM.

`Cc1cc(S(=O)(=O)NC2CC(F)(F)C2)ccc1-c1ccc2[nH]nc(N)c2c1Cl` [Example 66, 4-(3-amino-4-chloro-1H-indazol-5-yl)-N-(3,3-difluorocyclobutyl)-3-methylbenzenesulfonamide]: the EC50 under setting [1] is 1.08 µM.

Turning to `Cc1cc(S(=O)(=O)N(C)C2CC(O)(C(F)(F)F)C2)ccc1-c1ccc2[nH]nc(N)c2c1C` (stereo not shown) [Example 83, 4-(3-amino-4-methyl-1H-indazol-5-yl)-N-((1s,3s)-3-hydroxy-3-(trifluoromethyl)cyclobutyl)-N,3-dimethylbenzenesulfonamide], the EC50 under setting [1] worked out at 0.467 µM.

`Cc1c(-c2ccc(S(=O)(=O)N[C@@H]3CCC[C@@H]3O)cc2Cl)ccc2[nH]nc(N)c12` [Example 39, 4-(3-amino-4-methyl-1H-indazol-5-yl)-3-chloro-N-((1R,2S)-2-hydroxycyclopentyl)benzenesulfonamide]: the EC50 under setting [1] stood at 0.362 µM.

`Nc1n[nH]c2ccc(-c3ccc(S(=O)(=O)N[C@@H]4CCC[C@@H]4O)cc3Cl)c(F)c12` [Example 76, 4-(3-amino-4-fluoro-1H-indazol-5-yl)-3-chloro-N-((1R,2S)-2-hydroxycyclopentyl)benzenesulfonamide]: the EC50 under setting [1] was 0.171 µM.

Consider `Nc1n[nH]c2ccc(-c3ccc(S(=O)(=O)N4CC(F)(F)C[C@H]4CO)cc3F)c(Cl)c12` [Example 47, (S)-(1-((4-(3-amino-4-chloro-1H-indazol-5-yl)-3-fluorophenyl)sulfonyl)-4,4-difluoropyrrolidin-2-yl)methanol], for which the EC50 under setting [1] was determined as 0.986 µM.

`COc1c(-c2ccc(S(=O)(=O)NC3CC(O)(C(F)(F)F)C3)cc2C)ccc2[nH]nc(N)c12` (stereo not shown) [Example 70, 4-(3-amino-4-methoxy-1H-indazol-5-yl)-N-((1s,3s)-3-hydroxy-3-(trifluoromethyl)cyclobutyl)-3-methylbenzenesulfonamide]: the EC50 under setting [1] was 0.282 µM.

With `Cc1cc(S(=O)(=O)N[C@@H]2CCC[C@H]2O)ccc1-c1ccc2[nH]nc(N)c2c1C` [Example 15, 4-(3-amino-4-methyl-1H-indazol-5-yl)-N-((1R,2R)-2-hydroxycyclopentyl)-3-methylbenzenesulfonamide], the concentration for a half-maximal effect (EC50) under setting [1] worked out at 3.05 µM.

Consider `Cc1cc(S(=O)(=O)N2C[C@@H](F)C[C@H]2CO)ccc1-c1ccc2[nH]nc(N)c2c1C` [Example 92, ((2S,4S)-1-((4-(3-amino-4-methyl-1H-indazol-5-yl)-3-methylphenyl)sulfonyl)-4-fluoropyrrolidin-2-yl)methanol], for which the EC50 under setting [1] was 1.01 µM.

On to `Cc1cc(S(=O)(=O)NC2CCN(C)CC2)ccc1-c1ccc2[nH]nc(N)c2c1C` [4-(3-amino-4-methyl-1H-indazol-5-yl)-3-methyl-N-(1-methylpiperidin-4-yl)benzenesulfonamide], for which, under setting [2], the EC50 was more than 10 µM.

For `Cc1cc(S(=O)(=O)N[C@H]2CCC[C@@]2(C)O)ccc1-c1ccc2[nH]nc(N)c2c1C` [Example 59, 4-(3-amino-4-methyl-1H-indazol-5-yl)-N-((1S,2R)-2-hydroxy-2-methylcyclopentyl)-3-methylbenzenesulfonamide], under setting [1], the EC50 turned out to be 3.32 µM.

Consider `Cc1cc(S(=O)(=O)N2CCCC(F)(F)C2)ccc1-c1ccc2[nH]nc(N)c2c1C` [Example 79, 5-(4-((3,3-difluoropiperidin-1-yl)sulfonyl)-2-methylphenyl)-4-methyl-1H-indazol-3-amine], for which the EC50 under setting [1] is 1.52 µM.

Turning to `Cc1cc(S(=O)(=O)N[C@H]2CCC[C@H]2O)ccc1-c1ccc2[nH]nc(N)c2c1C` [Example 48, 4-(3-amino-4-methyl-1H-indazol-5-yl)-N-((1S,2R)-2-hydroxycyclopentyl)-3-methylbenzenesulfonamide], the EC50 under setting [1] worked out at 0.854 µM.

Regarding `Nc1n[nH]c2ccc(-c3ccc(S(=O)(=O)NC4CC(F)(F)C4)cc3Cl)c(Cl)c12` [Example 67, 4-(3-amino-4-chloro-1H-indazol-5-yl)-3-chloro-N-(3,3-difluorocyclobutyl)benzenesulfonamide], under setting [1], the EC50 is 0.535 µM.

Turning to `Cc1cc(S(=O)(=O)N[C@@H]2CCC[C@@H]2O)ccc1-c1ccc2[nH]nc(N)c2c1F` [Example 75, 4-(3-amino-4-fluoro-1H-indazol-5-yl)-N-((1R,2S)-2-hydroxycyclopentyl)-3-methylbenzenesulfonamide], the EC50 under setting [1] worked out at 0.359 µM.

Consider `COc1c(-c2ccc(S(=O)(=O)N[C@@H]3CCC[C@@H]3O)cc2Cl)ccc2[nH]nc(N)c12` [Example 74], for which the EC50 under setting [1] was 0.286 µM.

For `Cc1cc(S(=O)(=O)NC2CCCC(O)C2)ccc1-c1ccc2[nH]nc(N)c2c1C` (stereo not shown) [Example 25, 4-(3-amino-4-methyl-1H-indazol-5-yl)-N-(3-hydroxycyclohexyl)-3-methylbenzenesulfonamide], the EC50 under setting [1] came to 0.606 µM.

As to `Cc1cc(S(=O)(=O)N(C)[C@@H]2CCC[C@@H]2O)ccc1-c1ccc2[nH]nc(N)c2c1C` [Example 84, 4-(3-amino-4-methyl-1H-indazol-5-yl)-N-((1R,2S)-2-hydroxycyclopentyl)-N,3-dimethylbenzenesulfonamide], under setting [1], the EC50 was found to be 1.69 µM.

For the compound `COc1c(-c2ccc(S(=O)(=O)N[C@H]3C[C@](O)(C(F)(F)F)C3)cc2Cl)ccc2[nH]nc(N)c12` [Example 65, 4-(3-amino-4-methoxy-1H-indazol-5-yl)-3-chloro-N-((1s,3s)-3-hydroxy-3-(trifluoromethyl)cyclobutyl)benzenesulfonamide], the EC50 under setting [1] was found to be 1.22 µM.
